According to US7968508B2, “Benzophenone or benzoic acid anilide derivatives containing carboxyl groups as enzyme stabilizers” (priority 2007, dated 2011):

Target: Bacillus lentus alkaline protease F49 (Lederbergia lenta, UniProt P29599, A188P/L211D/S3T/V193M/V199I)
Test: Residual protease activity in the presence of an inhibitor
Format: biochemical
Details: compound 10 mM; substrate AAPFpNA; pH 8.6, 25° C.
Description: To verify that the compounds listed below have a protease activity-inhibiting effect, the residual proteolytic activity of the Bacillus lentus alkaline protease F49 (according to WO 95/23221 A1) was determined in the presence of these compounds.
The substrate succinyl-alanine-alanine-proline-phenylalanine-para-nitroanilide (AAPFpNA; Bachem L-1400) and 5×10^−9 and/or 1×10^−8 M of the protease were placed in 100 mM Tris buffer. The compounds to be tested as listed in Table 1 were then added in a final concentration of 10 mM. Each was dissolved in anhydrous DMSO, correcting for the effect of DMSO on the enzymatic activity by means of a corresponding reference with the same amount of DMSO but without the respective compound. The batches were incubated for 5 minutes at pH 8.6 and 25° C., where 1 U corresponds to 1 μmol substrate cleaved per minute.

Bacillus lentus alkaline protease F49, sequence (P29599 other isoform, or with tags, fused parts or gaps A188P/V193M/V199I/L211D): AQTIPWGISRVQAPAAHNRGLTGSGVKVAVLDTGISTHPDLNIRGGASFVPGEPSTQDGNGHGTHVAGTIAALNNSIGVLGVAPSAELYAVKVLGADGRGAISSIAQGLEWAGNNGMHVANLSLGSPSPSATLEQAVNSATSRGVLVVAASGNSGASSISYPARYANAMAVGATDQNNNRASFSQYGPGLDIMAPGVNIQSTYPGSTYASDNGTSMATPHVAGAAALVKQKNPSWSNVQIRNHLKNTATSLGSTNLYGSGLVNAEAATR

`O=C(O)c1cccc(NC(=O)c2ccccc2C(=O)O)c1` [V1, 2-[[(3-carboxyphenyl)amino]carbonyl]benzoic acid] was tested, and the “relative strength as protease inhibitor and/or stabilizer (rank order V1, V2, V3, V4, V5)” value was “the strongest”.
In the case of `O=C(O)c1ccc(C(=O)c2ccccc2C(=O)O)cc1` [V4, 2-(4-carboxybenzoyl)benzoic acid], the “relative strength as protease inhibitor and/or stabilizer (rank order V1, V2, V3, V4, V5)” value is reported as “practically just as good as V3”.
